Experiments:
HEK 293T cells [1] = assay: MTT proliferation and viability assay; format: cell-based, human; conditions: shRNA 4A.10 or 4A.06, 48h
Protocol: For tissue culture and generation of stable cell lines see (Black et al., 2010). Rapamycin (LC Laboratories) and AZD8055 (Selleckchem) were used at indicated concentrations. […] JIB-04 (Xcessbio) was used at a final concentration of 250 nM. For the translation assays, DMEM depleted of Methionine and Cysteine (Life Technologies 21013-024) was used.
MTT assays were performed following supplier's instructions from the Cell Proliferation Kit I™ (MTT) from Roche. Briefly, 1×10^4 cells were seeded per well of a 96 well plate and grown for 24h before treatment. Forty-eight hours later, cells were assayed.

RPE cells [2] = assay: Apoptosis by annexin V staining; format: cell-based, human; conditions: RPE CTRL and KDM4A overexpressing cells
p53 = p53 stabilization and p53 target gene induction after DNA damage; format: cell-based, human; conditions: RPE GFP-CTRL and GFP-KDM4A cells; 1 uM for 16 hrs
Protocol: Western blots were performed as in (Black et al., 2010). Antibodies used were: KDM4A (Neuro mAB, 75-189), β-actin (Millipore), GFP (Neuro mAB, 73-131), RFP (Abcam, ab62341), p53 (Santa Cruz, sc-126), MCM2 (Cell Signaling, #3619S), MCM3 (Cell Signaling, #4012S), MCM7 (Cell Signaling, #3735S), Halo (Promega), Actinin (Santa Cruz, sc-17829), HA 12CA5 (Roche), FLAG M2 (Sigma), DNA Pol α (Abcam, ab31777).

[3] = system: 1q12h copy gain in RPE cells; assay: FISH for site-specific copy gain; format: cell-based, human; conditions: RPE cells
Protocol: FISH was performed as described in (Manning et al., 2010). Probes for 1q12h, 1q telomere, and chromosome 2, 6, 8, and X alpha satellite were purchased from Rainbow Scientific. Probes for 1q12 (RP11-80L2), Xq13.2 (RP11-451A22), Xq13.1 (RP11-177A4) were purchased as BAC clones from Children's Hospital Oakland Research Institute (CHORI BacPac) FISH verified clone repository. Oligonucleotide probes for 1q21.2 (BCL9) and 1q23.3 were purchased from Agilent (SureFISH). BACS were prepared utilizing PureLink HiPure Plasmid Filter Maxiprep kit (Life Technologies) using the recommended modified wash buffer. Probes were nick translated (Abbot Molecular Kit) in the presence of fluorescently labeled dTTP (Enzo Life Science). Images of multiple planes of fields of nuclei were acquired on an Olympus IX81 Spinning Disk Microscope and analyzed using Slidebook 5.0 software. We used a conservative scoring metric for copy gain. Any foci that were touching were scored as a single foci to prevent increased numbers due to normally replicated foci. For RPE cells, copy gain was scored as any cell with 3 or more distinct foci. For 293T cells, copy gain was scored for any cell with 5 or more distinct foci. For RPE cells each experiment includes at least one replicate from the two different polyclonal stable cell preparations. At least 100 cells for each replicate were scored for all experiments except analysis of single cell clones.
Cells were plated onto culture dishes and allowed to adhere for 20-24 hrs in normoxia (5% CO2, 21% O2, and 74% N2). For hypoxic treatment, cells were maintained in a HERA Cell 150™ incubator (Thermo Scientific) flushed with 5% CO2, 1% O2 or 4% O2, and balanced with N2 for the duration of the experiment. Incubator calibrations were carried out by Bianchi Associates Calibrations/Verifications.
To release, cells were washed twice with culture medium pre-conditioned in normoxia or hypoxia, and supplied with fresh pre-conditioned media. For JIB-04 treatment, normoxic cells were pre-treated with 62.5 nM JIB-04 (Xcessbio) for 24 hrs, then treated again with JIB-04 and either transferred to 1% O2 or maintained in normoxia for an additional 24 hrs. Succinate was administered at a final concentration of 2 mM and cells were either maintained in normoxia for 72 hrs or maintained in normoxia for 48 hrs prior to being transferred to 1% O2 for 24 hrs.
FISH was performed as described in (Black et al., 2013; Manning et al., 2010). Probes for 1q12h, 1q telomere, chromosome 8 centromere (alpha satellite), and X centromere (alpha satellite) were purchased from Rainbow Scientific. Probes for Xq13.1 (RP11-177A4), Zebrafish BCL9 (CH73-15J19) and Zebrafish IGBP1 (CH73-223D24) were purchased as BAC clones from Children's Hospital Oakland Research Institute (CHORI BacPac) clone repository. Probes for 1q21.2 (BCL9) and 1q23.3 were purchased from Agilent (SureFISH).
FISH was performed as described in (Black et al., 2013; Manning et al., 2010). Probes for 1q12h, 1q telomere, chromosome 8 centromere (alpha satellite), and X centromere (alpha satellite) were purchased from Rainbow Scientific. Probes for Xq13.1 (RP11-177A4), Zebrafish BCL9 (CH73-15J19) and Zebrafish IGBP1 (CH73-223D24) were purchased as BAC clones from Children's Hospital Oakland Research Institute (CHORI BacPac) clone repository. Probes for 1q21.2 (BCL9) and 1q23.3 were purchased from Agilent (SureFISH). BACS were prepared utilizing PureLink HiPure™ Plasmid Filter Maxiprep kit (Life Technologies) using the recommended modified wash buffer. Probes were nick translated (Abbot Molecular Kit) in the presence of fluorescently labeled dTTP (Enzo Life Science). Images of multiple planes of fields of nuclei were acquired on an Olympus IX81 T Spinning Disk Microscope and analyzed using Slidebook™ 5.0 software. A conservative scoring metric was used for copy gain. Any foci that were touching were scored as a single copy to prevent increased numbers due to normally replicated foci.

RPE cells [4] = assay: Flow cytometry cell cycle analysis; format: cell-based, human
Protocol: Asynchronously growing, or G1/S arrested cells were prepared and fixed as in (Black et al., 2010). Cells were stained with 10 μM EdU for 1 hour prior to collection. Cell cycle was analyzed by PI staining or EdU incorporation using Click-IT EdU™ Flow Cytometry Assay Kit (Life Technologies). Flow cytometry of CD4+ T cells and cell cycle distribution were analyzed using a BD FACS ARIA II™.

KDM4A = KDM4A protein levels by western blot; format: cell-based, human; conditions: RPE cells
Protocol: Western blot analyses were performed according to (Black et al., 2010).
Western blots were performed as in (Black et al., 2010). Briefly, adherent cells were either scraped directly into PBS, or washed with PBS, trypsinized and collected by centrifuging at 2,000 RPM for 5 minutes. For preparation of whole-cell lysates, cell pellets were washed once in ice-cold PBS and resuspended in RIPA lysis buffer [50 mM Tris pH 7.4, 150 mM NaCl, 0.25% Sodium Deoxycholate, 1% NP40, 1 mM EDTA, 10% Glycerol] supplemented with complete protease inhibitor and PhosSTOP™ phosphatase inhibitor cocktails (Roche). Cells were lysed on ice for 15 minutes and immediately frozen at −80° C. for 10 min. Lysates were subsequently sonicated at 70% amplitude for 15 minutes in a QSonica Q800R™ and cleared of cell debris by centrifuging at 12,000 RPM for 15 minutes, before being analyzed by western blotting. For HIF1α expression, adherent cells were washed twice with ice-cold PBS and scraped directly in warmed 1× Laemmli buffer. Samples were sonicated at 70% amplitude for 15 minutes and boiled immediately prior to western blotting.

H3K36me3 = assay: H3K36 demethylase activity of KDM4A variants in transfected cells (immunofluorescence); format: cell-based; conditions: U2OS cells transfected with GFP-KDM4A
HEK 293T cells [5] = assay: Monitored cell proliferation assay (xCELLigence growth curves, doubling time); format: cell-based, human
Protocol: Seventy two hours post transfection 1×10^4 HEK 293T cells were seeded per well of a 96 well plate, and then treated after 24h. Cell proliferation was monitored with an xCELLigence system (Roche) (Vistejnova et al., 2009).

With `COc1ccc(-c2ccc3c(N4CCOC[C@@H]4C)nc(N4CCOC[C@@H]4C)nc3n2)cc1CO` [AZD8055] the “drug sensitivity of KDM4A shRNA cells vs control vector (MTT)” value (HEK 293T cells [1]) was “more sensitive”.

In the case of `NC(=O)NO` [HU, hydroxyurea], the “apoptosis (percent Annexin V positive cells)” value (RPE cells [2]) is reported as “no observed increased apoptosis”.

`COc1cccc2c1C(=O)c1c(O)c3c(c(O)c1C2=O)C[C@@](O)(C(=O)CO)C[C@@H]3O[C@H]1C[C@H](N)[C@H](O)[C@H](C)O1` [doxorubicin] was tested, and the “p53 stabilization and p53 target gene activation” value (p53) was “resulted in stabilization of p53 and activation of p53 target genes” and the “apoptosis (percent Annexin V positive cells)” value (RPE cells [2]) was “could induce apoptosis in both CTRL and KDM4A cells”.

With Tunicamycin the “site-specific copy gain (1q12h and 1q21.2) under stress” value ([3]; 24 hours, 2 μg/ml Tunicamycin) was “did not promote site-specific copy gain”, the “cell cycle profile under stress” value (RPE cells [4]; 24 hours) was “resulted in altered cell cycle profiles” and the “KDM4A protein levels under stress” value (KDM4A; 24 hours) was “significantly increased KDM4A levels”.

In the case of `O=C(O)CCC(=O)O` [succinate, reference compound], the “hypoxia-dependent copy gain of 1q12h” value ([3]; 1% O2 24 hours, JIB-04 62.5 nM or 2 mM succinate pre-treatment, or overexpression) is reported as “sufficient to abrogate hypoxia-dependent copy gain of 1q12h”, the “hypoxia-induced 1q12h copy number gains” value ([3]; 4% oxygen, transfection or 2 mM succinate for 24 hours) is reported as “antagonized” and the cell cycle profile (RPE cells [4]; normoxia and hypoxia) is reported as “did not alter KDM4A stabilization or cell cycle progression”. The “KDM4A protein levels in hypoxia” value (KDM4A; 1% O2) was “did not alter KDM4A stabilization”.

B1: KDM4A SNP-A482: KDM4A germline variant E482A (protein)
chain: MASESETLNPSARIMTFYPTMEEFRNFSRYIAYIESQGAHRAGLAKVVPPKEWKPRASYDDIDDLVIPAPIQQLVTGQSGLFTQYNIQKKAMTVREFRKIANSDKYCTPRYSEFEELERKYWKNLTFNPPIYGADVNGTLYEKHVDEWNIGRLRTILDLVEKESGITIEGVNTPYLYFGMWKTSFAWHTEDMDLYSINYLHFGEPKSWYSVPPEHGKRLERLAKGFFPGSAQSCEAFLRHKMTLISPLMLKKYGIPFDKVTQEAGEFMITFPYGYHAGFNHGFNCAESTNFATRRWIEYGKQAVLCSCRKDMVKISMDVFVRKFQPERYKLWKAGKDNTVIDHTLPTPEAAEFLKESELPPRAGNEEECPEEDMEGVEDGEEGDLKTSLAKHRIGTKRHRVCLEIPQEVSQSELFPKEDLSSEQYEMTECPAALAPVRPTHSSVRQVEDGLTFPDYSDSTEVKFEELKNVKLEEEDEEEEQAAAALDLSVNPASVGGRLVFSGSKKKSSSSLGSGSSRDSISSDSETSEPLSCRAQGQTGVLTVHSYAKGDGRVTVGEPCTRKKGSAARSFSERELAEVADEYMFSLEENKKSKGRRQPLSKLPRHHPLVLQECVSDDETSEQLTPEEEAEETEAWAKPLSQLWQNRPPNFEAEKEFNETMAQQAPHCAVCMIFQTYHQVEFGGFNQNCGNASDLAPQKQRTKPLIPEMCFTSTGCSTDINLSTPYLEEDGTSILVSCKKCSVRVHASCYGVPPAKASEDWMCSRCSANALEEDCCLCSLRGGALQRANDDRWVHVSCAVAILEARFVNIAERSPVDVSKIPLPRFKLKCIFCKKRRKRTAGCCVQCSHGRCPTAFHVSCAQAAGVMMQPDDWPFVVFITCFRHKIPNLERAKGALQSITAGQKVISKHKNGRFYQCEVVRLTTETFYEVNFDDGSFSDNLYPEDIVSQDCLQFGPPAEGEVVQVRWTDGQVYGAKFVASHPIQMYQVEFEDGSQLVVKRDDVYTLDEELPKRVKSRLSVASDMRFNEIFTEKEVKQEKKRQRVINSRYREDYIEPALYRAIME
modifications: left off: large carriers; small tags and cut ends
notes: KDM4A germline variant E482A
B1 was tested, and the “H3K36me3 and H3K9me3 catalytic activities” value (H3K36me3) was “did not appear to be altered”, the “rescue of increased sensitivity to AZD8055 due to KDM4A depletion (doubling time 5h-35h)” value (HEK 293T cells [5]; shRNA KDM4A plus non targetable GFP-KDM4A constructs) was “does not” and the “rescue of increased sensitivity to Rapamycin of KDM4A depleted cells (doubling time 5h-35h)” value (HEK 293T cells [5]; shRNA KDM4A plus shRNA-resistant GFP-KDM4A constructs) was “does not”.

From patent US20160113911A1, “METHODS AND COMPOSITIONS FOR THE TREATMENT OF CANCER” (THE GENERAL HOSPITAL CORPORATION, priority 2013, published 2016)
